Each block holds one compound with its values, some of them ahead of it.
Target: T1, Axl (Homo sapiens, UniProt P30530)
T1 construct: endogenous in cells; host or cells: HeLa cells
T1 sequence (P30530 26-894): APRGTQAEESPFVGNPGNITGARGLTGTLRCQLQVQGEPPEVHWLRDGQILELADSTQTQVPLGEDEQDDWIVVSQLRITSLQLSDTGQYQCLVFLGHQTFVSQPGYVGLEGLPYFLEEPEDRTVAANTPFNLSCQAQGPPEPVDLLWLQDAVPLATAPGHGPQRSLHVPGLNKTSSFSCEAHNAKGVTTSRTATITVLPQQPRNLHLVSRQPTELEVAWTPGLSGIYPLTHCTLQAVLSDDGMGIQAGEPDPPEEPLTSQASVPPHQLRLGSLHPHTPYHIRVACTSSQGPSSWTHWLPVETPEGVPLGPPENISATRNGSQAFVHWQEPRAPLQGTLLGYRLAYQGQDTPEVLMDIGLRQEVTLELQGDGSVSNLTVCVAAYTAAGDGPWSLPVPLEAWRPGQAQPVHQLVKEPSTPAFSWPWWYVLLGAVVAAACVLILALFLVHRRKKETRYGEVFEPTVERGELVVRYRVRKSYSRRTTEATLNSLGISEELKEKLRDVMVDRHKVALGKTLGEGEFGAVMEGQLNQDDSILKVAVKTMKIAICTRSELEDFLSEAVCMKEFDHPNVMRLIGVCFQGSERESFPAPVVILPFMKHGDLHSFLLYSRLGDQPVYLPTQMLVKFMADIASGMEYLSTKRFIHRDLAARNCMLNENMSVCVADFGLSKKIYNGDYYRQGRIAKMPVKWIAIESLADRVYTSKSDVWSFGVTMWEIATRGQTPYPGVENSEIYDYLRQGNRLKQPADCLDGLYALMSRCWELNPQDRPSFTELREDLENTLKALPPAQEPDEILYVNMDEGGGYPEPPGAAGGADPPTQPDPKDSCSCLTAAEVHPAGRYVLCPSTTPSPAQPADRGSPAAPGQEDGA
Test: Phospho-Akt in-cell Western assay
Assay type: cell-based
Conditions: Hela cells, Axl antibody cross-linking stimulation, phospho-Akt readout
Procedure: Phospho-Akt in-Cell Western Assay
The compounds of the invention were tested in the following assay for their ability to inhibit Axl activity.
• Cell culture plate: 96 well assay plate (Corning 3610), white, clear bottom, tissue-culture treated. • Cells: Hela cells. • Starvation medium: For Axl stimulation: 0.5% FCS (fetal calf serum) in DMEM, plus Axl/Fc (extracellular domain of AXL fused to immunoglobulin Fc region) (R&D, 154-AL) 500 ng/mL. • For EGF (epidermal growth factor) stimulation: 0.5% FCS in DMEM (Dulbecco's modified Eagles medium). • Poly-L-Lysine 0.01% solution (the working solution): 10 μg/ml, dilute In PBS (phosphate buffered saline). • Axl antibody cross-linking: • 1st: Mouse anti-Axl (R&D, MAB154). • 2nd: Biotin-SP-conjugated AffiniPure goat anti-mouse IgG (H+L) (Jackson ImmunoResearch #115-065-003). • Fixing buffer: 4% formaldehyde in PBS. • Wash buffer: 0.1% TritonX-100 in PBS. • Quenching buffer: 3% H2O2, 0.1% Azide in wash buffer, Azide and hydrogen peroxide (H2O2) are added fresh. • Blocking buffer: 5% BSA in TBST (tris buffered saline plus 0.1% Tween 20). • Primary antibody: Rabbit anti-human Phospho-Akt antibody (Cell Signaling 9271): 1×250 diluted in blocking buffer. • Secondary antibody: HRP (horse radish peroxidase)-conjugated Goat anti-Rabbit secondary, stock solution: Jackson ImmunoResearch (Goat anti-Rabbit HRP, #111-035-144) 1:1 diluted in glycerol, store at −20° C. The working solution: 1×2000 dilution of stock in blocking buffer. • Chemiluminescent working solution (Pierce, 37030): SuperSignal ELISA (enzyme linked immunosorbant assay) Pico Chemiluminescent substrate. • Crystal Violet solution: Stock: 2.5% Crystal violet in methanol, filtered and kept at ambient temperature. The working solution: dilute the stock 1:20 with PBS immediately before use. • 10% SDS: working solution: 5% SDS (sodium dodecylsulfate), diluted in PBS Methods: Day 1:
A 96 well TC (tissue culture treated) plate was coated with 10 μg/mL poly-L-Lysine at 37° C. for 30 min, washed twice with PBS, and air-dried for 5 minutes before cells were added. Hela cells were seeded at 10,000 cells/well and the cells were starved in 100 μL starvation medium containing Axl/Fc for 24 hrs.
The cells were pre-treated with test compounds by adding 100 μL of 2× test compound to the starvation medium on the cells. The cells were incubated at 37° C. for 1 hr before stimulation.
The cells were stimulated by Axl-antibody cross-linking as follows: A 5×1st/2nd Axl antibody mixture was made (37.5 μg/mL 1st/100 μg/mL 2nd) in starvation medium and nutated at 4° C. with thorough mixing for 1-2 hours for clustering. The resulting mix was warmed to 37° C. 50 μL of 5× Axl 1st/2nd of antibody cluster was added to the cells and the cells were incubated at 37° C. for 5 min.
After 5 minutes stimulation, the plate was flicked to remove medium and the plate was tapped onto paper towels. Formaldehyde (4.0% in PBS, 100 μL) was added to fix the cells and the cells were incubated at ambient temperature for 20 min without shaking.
The cells were washed with a plate washer buffer to remove the formaldehyde solution. The plate was flicked to removed excess wash buffer and tapped onto paper towels. Quenching buffer (100 μL) was added to each well and the cells were incubated at ambient temperature for 20 minutes without shaking.
The cells were washed with a plate washer buffer to remove the quenching buffer. Blocking buffer (100 μL) was added and the cells were incubated at ambient temperature for at least an hour with gentle shaking.
The cells were washed with a plate washer buffer and diluted primary antibody (50 μL) was added to each well (blocking buffer was added to the negative control wells instead). The plates were incubated overnight at 4° C. with gentle shaking.
The wash buffer was removed, diluted secondary antibody (100 μL) was added, and the cells were incubated at ambient temperature for 1 hour with gentle shaking. […]

SMILES: Nc1nc(Nc2cnc3c(c2)CC(N)CC3)nn1-c1cc(-c2ccccc2)c2c(n1)C1CCN2CC1 (centres unmarked) [Compound 1, 1-(1,4-ethano-8-phenyl-1,2,3,4-tetrahydro-1,5-naphthyridin-6-yl)-N^3-(6-amino-5,6,7,8-tetrahydroquinoline-3-yl)-1H-1,2,4-triazole-3,5-diamine]
IC50 (Table 1, formula (Ia)): < 1000 nM

SMILES: C[C@H]1CN(c2ccc(Nc3nc(N)n(-c4nnc(Cl)c5c4C4CCC5CC4)n3)cn2)CCN1CC1CC1 [Compound 20, (3S)-1-(4-chloro-5,8-ethano-5,6,7,8-tetrahydrophthalazine-1-yl)-N^3-(6-(4-(cyclopropylmethyl)-3-methylpiperazin-1-yl)pyridin-3-yl)-1H-1,2,4-triazole-3,5-diamine]
IC50 (Table 7, formula (V)): < 1000 nM

SMILES: C[C@H]1CN(c2ccc(Nc3nc(N)n(-c4nnc(-c5ccccc5)c5c4C4CCC5CC4)n3)cn2)CCN1CC1CC1 [Compound 21, (3S)-1-(4-phenyl-5,8-ethano-5,6,7,8-tetrahydrophthalazine-1-yl)-N^3-(6-(4-(cyclopropylmethyl)-3-methylpiperazin-1-yl)pyridin-3-yl)-1H-1,2,4-triazole-3,5-diamine]
IC50 (Table 7, formula (V)): 1000 to 10000 nM

SMILES: C[C@H]1CN(c2ccc(Nc3nc(N)n(-c4nnc(-c5ccccc5Cl)c5c4C4CCC5CC4)n3)cn2)CCN1CC1CC1 [Compound 22, (3S)-1-(4-(2-chlorophenyl)-5,8-ethano-5,6,7,8-tetrahydrophthalazine-1-yl)-N^3-(6-(4-(cyclopropylmethyl)-3-methylpiperazin-1-yl)pyridin-3-yl)-1H-1,2,4-triazole-3,5-diamine]
IC50 (Table 7, formula (V)): < 1000 nM

SMILES: Cc1cccc(-c2nnc(-n3nc(Nc4ccc(N5CCN(CC6CC6)[C@@H](C)C5)nc4)nc3N)c3c2C2CCC3CC2)c1 [Compound 23, (3S)-1-(4-(3-methylphenyl)-5,8-ethano-5,6,7,8-tetrahydrophthalazine-1-yl)-N^3-(6-(4-(cyclopropylmethyl)-3-methylpiperazin-1-yl)pyridin-3-yl)-1H-1,2,4-triazole-3,5-diamine]
IC50 (Table 7, formula (V)): 1000 to 10000 nM

SMILES: Nc1nc(Nc2ccc3c(c2)CC[C@@H](N)CC3)nn1-c1cc(-c2ccccc2)c2c(n1)C1CCN2CC1 [Compound 26, (7S)-1-(1,4-ethano-8-phenyl-1,2,3,4-tetrahydro-1,5-naphthyridin-6-yl)-N^3-(7-amino-6,7,8,9-tetrahydro-5H-benzo[7]annulene-2-yl)-1H-1,2,4-triazole-3,5-diamine]
IC50 (Table 4, formula (III)): < 1000 nM

SMILES: CC(C)CN[C@H]1CCc2ccc(Nc3nc(N)n(-c4cc(-c5ccccc5)c5c(n4)C4CCN5CC4)n3)cc2CC1 [Compound 40, (7S)-1-(1,4-ethano-8-phenyl-1,2,3,4-tetrahydro-1,5-naphthyridin-6-yl)-N^3-(7-(isobutylamino)-6,7,8,9-tetrahydro-5H-benzo[7]annulene-2-yl)-1H-1,2,4-triazole-3,5-diamine]
IC50 (Table 4, formula (III)): < 1000 nM

Other lines, results leading:

IC50 (Table 5, formula (IVa)): < 1000 nM
SMILES: N#Cc1cccc(-c2nnc(-n3nc(Nc4ccc(N5CCC(N6CCCC6)CC5)c(F)c4)nc3N)c3c2C2CCC3CC2)c1 [Compound 16, 1-(4-(3-cyanophenyl)-5,8-ethano-5,6,7,8-tetrahydrophthalazine-1-yl)-N^3-(4-(4-(pyrrolidin-1-yl)piperidinyl)-3-fluorophenyl)-1H-1,2,4-triazole-3,5-diamine]

IC50 (Table 8, formula (VI)): < 1000 nM
SMILES: Nc1nc(Nc2ccc3c(c2)CCC(N2CCCC2)CC3)nn1-c1nnc(-c2ccccc2Cl)c2c1C1CCC2CC1 (centres unmarked) [Compound 29, 1-(4-(2-chlorophenyl)-5,8-ethano-5,6,7,8-tetrahydrophthalazine-1-yl)-N^3-(7-(pyrrolidin-1-yl)-6,7,8,9-tetrahydro-5H-benzo[7]annulene-2-yl)-1H-1,2,4-triazole-3,5-diamine]

IC50 (Table 5, formula (IVa)): 1000 to 10000 nM
SMILES: Cc1cccc(-c2nnc(-n3nc(Nc4ccc(N5CCC(N6CCCC6)CC5)c(F)c4)nc3N)c3c2C2CCC3CC2)c1 [Compound 19, 1-(4-(3-methylphenyl)-5,8-ethano-5,6,7,8-tetrahydrophthalazine-1-yl)-N^3-(4-(4-(pyrrolidin-1-yl)piperidinyl)-3-fluorophenyl)-1H-1,2,4-triazole-3,5-diamine]

IC50 (Table 5, formula (IVa)): < 1000 nM
SMILES: Nc1nc(Nc2ccc(N3CCC(N4CCCC4)CC3)c(F)c2)nn1-c1nnc(-c2ccc3c(c2)OCO3)c2c1C1CCC2CC1 [Compound 17, 1-(4-(benzo[d][1,3]dioxol-5-yl)-5,8-ethano-5,6,7,8-tetrahydrophthalazine-1-yl)-N^3-(4-(4-(pyrrolidin-1-yl)piperidinyl)-3-fluorophenyl)-1H-1,2,4-triazole-3,5-diamine]

IC50 (Table 8, formula (VI)): 1000 to 10000 nM
SMILES: CCOc1ccc(C)cc1-c1nnc(-n2nc(Nc3ccc4c(c3)CCC(N3CCCC3)CC4)nc2N)c2c1C1CCC2CC1 (centres unmarked) [Compound 32, 1-(4-(2-ethoxy-5-methylphenyl)-5,8-ethano-5,6,7,8-tetrahydrophthalazine-1-yl)-N^3-(7-(pyrrolidin-1-yl)-6,7,8,9-tetrahydro-5H-benzo[7]annulene-2-yl)-1H-1,2,4-triazole-3,5-diamine]

IC50 (Table 3, formula (II)): < 1000 nM
SMILES: COc1cccc(-c2cc(-n3nc(Nc4ccc(N5CCC(N6CCCC6)CC5)c(F)c4)nc3N)nc3c2N2CCC3CC2)c1 [Compound 11, 1-(1,4-ethano-8-(3-methoxyphenyl)-1,2,3,4-tetrahydro-1,5-naphthyridin-6-yl)-N^3-(4-(4-(pyrrolidin-1-yl)piperidinyl)-3-fluorophenyl)-1H-1,2,4-triazole-3,5-diamine]

IC50 (Table 3, formula (II)): < 1000 nM
SMILES: Nc1nc(Nc2ccc(N3CCC(N4CCCC4)CC3)c(F)c2)nn1-c1cc(-c2cccc(C(F)(F)F)c2)c2c(n1)C1CCN2CC1 [Compound 10, 1-(1,4-ethano-8-(3-trifluoromethylphenyl)-1,2,3,4-tetrahydro-1,5-naphthyridin-6-yl)-N^3-(4-(4-(pyrrolidin-1-yl)piperidinyl)-3-fluorophenyl)-1H-1,2,4-triazole-3,5-diamine]
